Measurements from article PMC6858952 (Clinical cancer research : an official journal of the …, 2019).

Columns and labels:
[1] = test system: mouse tumor organoids (mT); experiment: Organoid cytotoxicity assay; type: cell-based; conditions: 72 h, read-out: EC50 mT
[2] = test system: hT3 organoid orthotopic xenografts in NSG mice; experiment: Orthotopic xenografts of human tumor organoids, 7-day trial; type: in vivo, mouse
[3] = test system: KPC mice (pancreatic ductal adenocarcinoma); experiment: Survival study in tumor-bearing KPC mice; type: in vivo, mouse
[4] = test system: human organoids from normal pancreata (hN); experiment: Organoid cytotoxicity assay; type: cell-based; conditions: 72 h, read-out: EC50 hN
[5] = test system: mouse organoids from normal pancreata (mN); experiment: Organoid cytotoxicity assay; type: cell-based; conditions: 72 h, read-out: EC50 mN
[6] = Intratumoral gemcitabine pharmacokinetic analysis; type: in vivo, mouse; conditions: KPC tumors, with versus without MEKi and AKTi

Row | Structure (SMILES) | EC50 [1] | cell death by CC3 IHC (in words) [2] | cell proliferation by Ki67 IHC (in words) [2] | survival (in words) [3] | tumor growth (in words) [3] | EC50 [4] | EC50 [5] | intratumoral concentration of Gem and its metabolites [6]
1 | CCOc1cc2ncc(C#N)c(Nc3ccc(OCc4ccccn4)c(Cl)c3)c2cc1NC(=O)/C=C/CN(C)C [ERBBi, neratinib] | 1.2 µM | no effect on cell death | reduced cell proliferation | – | – | – | – | –
2 | NC1(c2ccc(-c3nc4ccn5c(=O)[nH]nc5c4cc3-c3ccccc3)cc2)CCC1 [AKTi, MK2206] | – | – | – | without extension in survival | reduced tumor growth | 70 µM | 0.14 µM | –
3 | Cn1cnc2c(F)c(Nc3ccc(Br)cc3Cl)c(C(=O)NOCCO)cc21 [MEKi, selumetinib] | – | significantly increased | did not have any significant impact | did not significantly impact | did not significantly impact | 12 µM | 2 µM | –
4 | Nc1ccn([C@@H]2O[C@H](CO)[C@@H](O)C2(F)F)c(=O)n1 [Gem, gemcitabine] | – | – | – | did not significantly impact | did not significantly impact | – | – | no differences in intratumoral concentration
